Reference: US20260285850A1, “SUBSTITUTED OXAZOLIDINONES AND IMIDAZOLINONES AS HERBICIDES” (FMC CORPORATION, priority 2023, published 2026)

How the values were obtained:
Format in all cases: in vivo
[1] = tested on: barnyardgrass (Echinochloa crus-galli); assay: Test A preemergence soil spray, visual injury rating 0-100; conditions: 10 days
Summary of the method: (§1)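 Greenhouse test: loam/sand pots received a surfactant-containing formulation, as a preemergence directed soil spray or a postemergence spray on young plants. Injury was judged visually at day 10 relative to untreated controls.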

[2] = tested on: blackgrass (Alopecurus myosuroides); assay: as above; conditions: 10 days
Summary of the method: as §1

[3] = tested on: corn (Zea mays); assay: as above; conditions: 10 days
Summary of the method: as §1

[4] = tested on: green foxtail (Setaria viridis); assay: as above; conditions: 10 days
Summary of the method: as §1

[5] = tested on: kochia (Bassia scoparia); assay: as above; conditions: 10 days
Summary of the method: as §1

[6] = tested on: oat, wild (wild oat, Avena fatua); assay: as above; conditions: 10 days
Summary of the method: as §1

[7] = tested on: palmer (palmer amaranth, palmer pigweed, Amaranthus palmeri); assay: as above; conditions: 10 days
Summary of the method: as §1

[8] = tested on: ragweed (common ragweed, Ambrosia artemisiifolia); assay: as above; conditions: 10 days
Summary of the method: as §1

[9] = tested on: ryegrass, Italian (italian ryegrass, Lolium multiflorum); assay: as above; conditions: 10 days
Summary of the method: as §1

[10] = tested on: soybean (Glycine max); assay: as above; conditions: 10 days
Summary of the method: as §1

[11] = tested on: wheat (Triticum aestivum); assay: as above; conditions: 10 days
Summary of the method: as §1

[12] = tested on: barnyardgrass (Echinochloa crus-galli); assay: Test A postemergence application, visual injury rating 0-100
Summary of the method: as §1

[13] = tested on: blackgrass (Alopecurus myosuroides); assay: as above
Summary of the method: as §1

[14] = tested on: corn (Zea mays); assay: as above
Summary of the method: as §1

[15] = tested on: galium (catchweed bedstraw, Galium aparine); assay: as above
Summary of the method: as §1

[16] = tested on: green foxtail (Setaria viridis); assay: as above
Summary of the method: as §1

[17] = tested on: horseweed (Erigeron canadensis); assay: as above
Summary of the method: as §1

[18] = tested on: kochia (Bassia scoparia); assay: as above
Summary of the method: as §1

[19] = tested on: oat, wild (wild oat, Avena fatua); assay: as above
Summary of the method: as §1

[20] = tested on: palmer (palmer amaranth, palmer pigweed, Amaranthus palmeri); assay: as above
Summary of the method: as §1

[21] = tested on: ragweed (common ragweed, Ambrosia artemisiifolia); assay: as above
Summary of the method: as §1

[22] = tested on: ryegrass, Italian (italian ryegrass, Lolium multiflorum); assay: as above
Summary of the method: as §1

[23] = tested on: soybean (Glycine max); assay: as above
Summary of the method: as §1

[24] = tested on: wheat (Triticum aestivum); assay: as above
Summary of the method: as §1

[25] = tested on: barnyardgrass (Echinochloa crusgalli); assay: Test B flooded paddy test, visual plant response rating 0-100; conditions: 250 g ai/ha, Flood, applied to paddy water, evaluated after 13 days
Summary of the method: (§2)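 Each species was raised to two leaves before flooding to a 3 cm depth and dosing the water with compound. Injury was assessed by eye after 13 days under greenhouse conditions.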

[26] = tested on: ducksalad (Heteranthera limosa); assay: as above; conditions: 250 g ai/ha, Flood, applied to paddy water, evaluated after 13 days
Summary of the method: as §2

[27] = tested on: rice (Oryza sativa); assay: as above; conditions: 250 g ai/ha, Flood, applied to paddy water, evaluated after 13 days
Summary of the method: as §2

[28] = tested on: sedge, umbrella (small-flower umbrella sedge, Cyperus difformis); assay: as above; conditions: 250 g ai/ha, Flood, applied to paddy water, evaluated after 13 days
Summary of the method: as §2

[29] = 62 g ai/ha, 0 = no effect, 100 = complete control
[30] = 62 g ai/ha, postemergence, 10 days, 0 = no effect, 100 = complete control
[31] = Postemergence, 16 g ai/ha, greenhouse 10 days, 0 no effect, 100 complete control

In the case of C=CC1(C(=O)NC2CC(C(=O)OC)C2)CN(c2cc(F)cc(F)c2)C(=O)O1 (stereo not shown) [Compound 172], the “Barnyardgrass plant response rating” value ([1]; 16 g ai/ha, 0 to 100 scale) is reported as 0, the “Barnyardgrass plant response rating (0-100)” value [1, 29] is reported as 90 and the “Blackgrass plant response rating” value ([2]; 16 g ai/ha, 0 to 100 scale) is reported as 50. For the same compound, the “Blackgrass plant response rating (0-100)” value [2, 29] was 90, the “Corn plant response rating” value ([3]; 16 g ai/ha, 0 to 100 scale) was 80 and the “Corn plant response rating (0-100)” value [3, 29] was 90. For the same compound, the “Foxtail, Green plant response rating” value ([4]; 16 g ai/ha, 0 to 100 scale) was 40, the “Foxtail, Green plant response rating (0-100)” value [4, 29] was 100 and the “Kochia plant response rating” value ([5]; 16 g ai/ha, 0 to 100 scale) was 0. For the same compound, the “Kochia plant response rating (0-100)” value [5, 29] was 100, the “Oat, Wild plant response rating” value ([6]; 16 g ai/ha, 0 to 100 scale) was 30 and the “Oat, Wild plant response rating (0-100)” value [6, 29] was 90. The “Pigweed, Palmer plant response rating” value ([7]; 16 g ai/ha, 0 to 100 scale) was 10, the “Pigweed, Palmer plant response rating (0-100)” value [7, 29] was 60 and the “Ragweed plant response rating” value ([8]; 16 g ai/ha, 0 to 100 scale) was 0. The “Ragweed plant response rating (0-100)” value [8, 29] was 0, the “Ryegrass, Italian plant response rating” value ([9]; 16 g ai/ha, 0 to 100 scale) was 40 and the “Ryegrass, Italian plant response rating (0-100)” value [9, 29] was 90. The “Soybean plant response rating” value ([10]; 16 g ai/ha, 0 to 100 scale) was 0, the “Soybean plant response rating (0-100)” value [10, 29] was 70 and the “Wheat plant response rating” value ([11]; 16 g ai/ha, 0 to 100 scale) was 90. The “Wheat plant response rating (0-100)” value [11, 29] was 100, the “Barnyardgrass plant response rating (0-100)” value [12, 30] was 90 and the “Barnyardgrass plant response rating (0 to 100 scale)” value [12, 31] was 80. For the same compound, the “Blackgrass plant response rating (0-100)” value [13, 30] was 90, the “Blackgrass plant response rating (0 to 100 scale)” value [13, 31] was 90 and the “Corn plant response rating (0-100)” value [14, 30] was 100. The “Corn plant response rating (0 to 100 scale)” value [14, 31] was 100, the “Galium plant response rating (0-100)” value [15, 30] was 90 and the “Galium plant response rating (0 to 100 scale)” value [15, 31] was 90. For the same compound, the “Foxtail, Green plant response rating (0-100)” value [16, 30] was 90, the “Foxtail, Green plant response rating (0 to 100 scale)” value [16, 31] was 80 and the “Horseweed plant response rating (0-100)” value [17, 30] was 10. For the same compound, the “Horseweed plant response rating (0 to 100 scale)” value [17, 31] was 0, the “Kochia plant response rating (0-100)” value [18, 30] was 90 and the “Kochia plant response rating (0 to 100 scale)” value [18, 31] was 90. The “Oat, Wild plant response rating (0-100)” value [19, 30] was 90, the “Oat, Wild plant response rating (0 to 100 scale)” value [19, 31] was 90 and the “Pigweed, Palmer plant response rating (0-100)” value [20, 30] was 60. The “Pigweed, Palmer plant response rating (0 to 100 scale)” value [20, 31] was 10, the “Ragweed plant response rating (0-100)” value [21, 30] was 20 and the “Ragweed plant response rating (0 to 100 scale)” value [21, 31] was 10. The “Ryegrass, Italian plant response rating (0-100)” value [22, 30] was 90, the “Ryegrass, Italian plant response rating (0 to 100 scale)” value [22, 31] was 80 and the “Soybean plant response rating (0-100)” value [23, 30] was 80. The “Soybean plant response rating (0 to 100 scale)” value [23, 31] was 80, the “Wheat plant response rating (0-100)” value [24, 30] was 90 and the “Wheat plant response rating (0 to 100 scale)” value [24, 31] was 90. For the same compound, the “Plant response rating, Barnyardgrass (0 to 100 scale, 0 is no effect and 100 is complete control)” value [25] was 95, the “Plant response rating, Ducksalad (0 to 100 scale, 0 is no effect and 100 is complete control)” value [26] was 80 and the “Plant response rating, Rice (0 to 100 scale, 0 is no effect and 100 is complete control)” value [27] was 70. For the same compound, the “Plant response rating, Sedge, Umbrella (0 to 100 scale, 0 is no effect and 100 is complete control)” value [28] was 100.
